Patent publication US11208407B2, “Substituted phenyl compounds as indoleamine 2,3-dioxygenase (IDO) inhibitors” (Merck Sharp & Dohme Corp., priority 2017, dated 2021)

Legend:
IDO1 [1] = target: T1, IDO1 (Homo sapiens, UniProt P14902); experiment: IDO1 Cellular Assay in HeLa Cells Stimulated with IFNγ; type: cell-based; conditions: IFNγ 100 ng/mL, 300 uM L-tryptophan, about 48 hours, read-out: IDO HeLa Cell Assay, IC50
Experimental: Biological Assays IDO1 Cellular Assay in HeLa Cells Stimulated with IFNγ
HeLa cells were cultured in complete HeLa culture medium (90% EMEM, 10% heat-inactivated fetal bovine serum) and expanded to about 1×10^9 cells. The cells were then collected and frozen down at 1×10^7 cells/vial in 1 mL frozen medium (90% complete HeLa culture medium, 10% DMSO).
Compounds to be tested were serially diluted in ten 3-fold steps in DMSO starting from 10 mM DMSO stocks in Echo low volume plate(s). Compound dilutions or DMSO alone were then dispensed from the dilution plate(s) into Greiner black 384-well assay plate(s) (catalog #781086, 50 nL/well) using an Echo 550 acoustic liquid handler (Labcyte).
Frozen HeLa cells were thawed and transferred into HeLa assay medium (99% complete HeLa culture medium, 1% Pen/Strep) with 20 mL medium/vial of cells. The cells were spun down at 250 g in a table top centrifuge for 5 min and suspended in same volume of HeLa assay medium. The cells were then counted and adjusted to a density of 2×10^5 cells/mL in HeLa assay medium. Sterile L-tryptophan were added to the cells with final concentration of 300 uM L-tryptophan. A small aliquot (2 mL/plate) of HeLa cells were set aside and were not treated with IFNγ, to serve as the Max-E control.
HeLa cells with and without IFNγ were dispensed to the respective wells of 384-well assay plates containing the compounds. The plates were incubated for about 48 hours at a 37° C., 5% CO2 incubator. Afterwards, 12 μL of 0.5 M methyl isonipecotate in dimethyl sulfoxide were added into each well and the plates were sealed and incubated at 37° C. without CO2 overnight. The plates were centrifuged for 1 min at 200×g. The resulting fluorescence was measured in a Spectramax plate reader (Molecular Devices) with a 400 nm excitation filter and a 510 nm emission filter.
The fluorescence intensity of each well was corrected for the background observed in wells with non-IFNγ-treated cells and was expressed as a fraction of the intensity observed in wells of IFNγ-treated cells and DMSO only. Potencies were calculated by linear least squares fit to the four parameter logistic IC50 equation.

IDO1 [2] = target: T1, IDO1; experiment: IDO1 Human Whole Blood Assay; type: cell-based; parameters: Human whole blood was drawn in sodium heparin coated tubes from healthy internal donors; from tissue; host or cells: Human whole blood from healthy donors, stimulated with LPS and IFNγ; conditions: LPS and IFNγ 100 ng/mL, 18 h, kynurenine by LC/MS/MS
Experimental: IDO1 Human Whole Blood Assay
Compounds to be tested were serially diluted in ten 3-fold steps in DMSO starting from 10 mM. 3 µL of compound dilutions or DMSO alone were then dispensed from the dilution plate into a polypropylene 96-well assay plate containing 97 µL of RPMI medium using an Echo 555 acoustic liquid handler (Labcyte). LPS (lipopolysaccharide) and IFNγ was prepared in RPMI to a 10× of final conc. (1000 ng/mL), final concentration is 100 ng/mL.
Human whole blood was drawn in sodium heparin coated tubes from healthy internal donors. 240 µL of blood was transferred to each of the wells of a v-bottom 96 well plate. 30 µL of compound was transferred from intermediate dilution plate, and incubated for 15 min. 30 μL from stimulants was then transferred to blood and mixed thoroughly. Plate was covered with breathable membrane and incubated at 37° C. for overnight (18 h).
On day 2, isotope labeled standard solutions of kunurenine and tryptophan was made in water at 10× concentration and 30 µL was added to the blood at 3 µM final concentration. The assay plates were centrifuged at 300×G for 10 min with no brake to separate plasma from red blood cells. 60 µL of plasma samples was removed without disturbing red blood cells. Plasma was diluted with RPMI medium in 1:1 ratio and proteins were precipitated out with two volumes of Acetonitrile. The plates were centrifuged at 4000×G for 60 min. 20 µL of supernatant was carefully transferred to a 384 well plate containing 40 µL of 0.1% formic acid in water and analyzed by LC/MS/MS.
LC/MS/MS analyses were performed using Thermo Fisher's LX4-TSQ Quantum Ultra system. This system consists of four Agilent binary high-performance liquid chromatography (HPLC) pumps and a TSQ Quantum Ultra triple quadrupole MS/MS instrument. For each sample, 5 µL were injected onto an Atlantis T3 column (2.1 mm×150 mm, 3 µm particle size) from Waters. The mobile phase gradient pumped at 0.8 mL/min was used to elute the analytes from the column at 25° C. The elution started at 0% B increasing linearly to 25% B at 6.5 min, holding at 25% for 1 min, re-equilibrating to 10 min. Mobile phase A consisted of 0.1% formic acid in water. Mobile phase B consisted of 0.1% of formic acid in acetonitrile. Data was acquired in positive mode using a HESI interface. The operational parameters for the TSQ Quantum Ultra instrument were a spray voltage of 4000 V, capillary temperature of 380° C., vaporizer temperature 400° C., shealth gas 60 arbitrary units, Aux gas 20 arbitrary units, tube lens 85 and collision gas 1.2 mTorr. SRM (selected-reaction monitoring) chromatograms of kynurenine (Q1: 209.2>Q3:94.0) and internal standard (Q1: 215.3>Q3:98.2) were collected for 90 sec. The peak area was integrated by Xcalibur Quan software. The ratios between the kynurenine generated in the reaction and 2D6-Kynurenine spiked-in internal standard were used to generate percentage inhibition and IC50 values. Compounds were titrated and IC50's were calculated by 4 parameter sigmoidal curve fitting formula.

T1 sequence (P14902 whole entry): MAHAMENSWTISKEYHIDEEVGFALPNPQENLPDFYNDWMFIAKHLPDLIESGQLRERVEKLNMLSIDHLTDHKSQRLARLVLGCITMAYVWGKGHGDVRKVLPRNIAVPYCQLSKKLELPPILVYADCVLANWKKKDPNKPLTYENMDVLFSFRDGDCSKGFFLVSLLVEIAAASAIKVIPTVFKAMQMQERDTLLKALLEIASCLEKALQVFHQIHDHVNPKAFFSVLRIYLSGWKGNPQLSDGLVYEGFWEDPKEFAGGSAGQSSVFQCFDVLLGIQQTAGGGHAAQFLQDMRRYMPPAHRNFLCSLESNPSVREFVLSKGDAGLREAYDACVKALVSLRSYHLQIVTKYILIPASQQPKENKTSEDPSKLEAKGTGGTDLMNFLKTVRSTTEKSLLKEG

Row | IC50 (IDO1 [1]) [nM] | IC50 (IDO1 [2]) [nM] | Compound
1 | 1.71 | 118 | N#Cc1cccc(C(=O)Nc2ccc(C3(c4nc5cc(C#N)cnc5[nH]4)CCC3)cc2F)c1 [Example 17, 3-Cyano-N-(4-(1-(6-cyano-3H-imidazo[4,5-b]pyridin-2-yl)cyclobutyl)-2-fluorophenyl)benzamide]
2 | 2.81 | 606 | COc1cc(C)c(-c2ccc(C3(c4nc5cc(C(F)(F)F)cnc5[nH]4)COC3)cc2)c(C)n1 [Example 43, 2-{3-[4-(6-methoxy-2,4-dimethylpyridin-3-yl)phenyl]oxetan-3-yl}-6-(trifluoromethyl)-3H-imidazo[4,5-b]pyridine]
3 | 0.736 | 103 | N#Cc1cccc(C(=O)Nc2ccc(C3(c4nc5cc(Cl)cnc5[nH]4)CCC3)cc2F)c1 [Example 18, N-{4-[1-(6-chloro-3H-imidazo[4,5-b]pyridin-2-yl)cyclobutyl]-2-fluorophenyl}-3-cyanobenzamide]
4 | 1.84 | 182 | N#Cc1cccc(C(=O)Nc2ccc(C3(c4nc5ccc(C#N)cc5[nH]4)CC(F)C3)cc2)c1 (stereo not drawn) [Example 26, 3-Cyano-N-(4-(1-(6-cyano-1H-benzo[d]imidazol-2-yl)-3-fluorocyclobutyl)phenyl)benzamide]
5 | 2.16 | 445 | Cc1cc(OC(F)F)nc(C)c1-c1ccc(C2(c3nc4cc(C(F)(F)F)cnc4[nH]3)COC2)cc1 [Example 42, 2-(3-{4-[6-(difluoromethoxy)-2,4-dimethylpyridin-3-yl]phenyl}oxetan-3-yl)-6-(trifluoromethyl)-3H-imidazo[4,5-b]pyridine]
6 | 2.44 | 130 | Cc1cc(OC(F)F)nc(C)c1-c1ccc(C2(c3nc4cc(Cl)ccc4[nH]3)CCC2)cc1 [Example 48, 5-chloro-2-(1-{4-[6-(difluoromethoxy)-2,4-dimethylpyridin-3-yl]phenyl}cyclobutyl)-1H-benzimidazole]
7 | 15.4 | 2700 | OCc1cc(C(F)(F)F)ncc1-c1ccc(C2(c3nc4cc(C(F)(F)F)cnc4[nH]3)COC2)cc1 [Example 45, [2-(trifluoromethyl)-5-(4-{3-[6-(trifluoromethyl)-3H-imidazo[4,5-b]pyridin-2-yl]oxetan-3-yl}phenyl)pyridin-4-yl]methanol]
8 | 0.944 | 43.7 | N#Cc1cccc(C(=O)Nc2ccc(C3(c4nc5cc(C(F)(F)F)cnc5[nH]4)CCC3)cc2F)c1 [Example 19, 3-cyano-N-(2-fluoro-4-{1-[6-(trifluoromethyl)-3H-imidazo[4,5-b]pyridin-2-yl]cyclobutyl}phenyl) benzamide]
9 | 3.6 | 182 | Cc1cc(C2CC2)ncc1-c1ccc(C2(c3nc4ncc(C#N)cc4[nH]3)CCC2)cc1 [Example 39, 2-(1-(4-(6-Cyclopropyl-4-methylpyridin-3-yl)phenyl)cyclobutyl)-1H-imidazo[4,5-b]pyridine-6-carbonitrile]
10 | 1.07 | 47.6 | N#Cc1cccc(C(=O)Nc2ccc(C3(c4nc5ccc(Cl)cc5[nH]4)CC(F)C3)cc2)c1 (stereo not drawn) [Example 25, N-(4-(1-(6-chloro-1H-benzo[d]imidazol-2-yl)-3-fluorocyclobutyl)phenyl)-3-cyanobenzamide]
11 | 1.1 | 40.3 | N#Cc1cccc(C(=O)Nc2ccc(C3(c4nc5ccc(C(F)(F)F)cc5[nH]4)CCC3)cc2)c1 [Example 7, 3-cyano-N-(4-{1-[6-(trifluoromethyl)-1H-benzimidazol-2-yl]cyclobutyl}phenyl)benz-amide]
12 | 1.56 | 22.9 | N#Cc1cccc(C(=O)Nc2ccc(C3(c4nc5ccc(Cl)cc5[nH]4)COC3)cc2)c1 [Example 11, N-(4-(3-(6-chloro-1H-benzo[d]imidazol-2-yl)oxetan-3-yl)phenyl)-3-cyanobenzamide]
13 | 3.25 | 132 | N#Cc1cccc(C(=O)Nc2ccc(C3(c4nc5ncc(Cl)cc5[nH]4)CCC3)cc2)c1 [Example 10, N-{4-[1-(6-chloro-1H-imidazo[4,5-b]pyridin-2-yl)cyclobutyl]phenyl}-3-cyanobenzamide]
14 | 1.17 | 35.5 | N#Cc1cccc(C(=O)Nc2ccc(C3(c4nc5cc(Br)cnc5[nH]4)CCC3)cc2F)c1 [Example 16, N-(4-(1-(6-bromo-3H-imidazo[4,5-b]pyridin-2-yl)cyclobutyl)-2-fluorophenyl)-3-cyanobenzamide]
15 | 1.76 | 284 | OCc1cc(C(F)(F)F)ncc1-c1ccc(C2(c3nc4ccc(Cl)cc4[nH]3)COC2)cc1 [Example 51, [5-{4-[3-(6-chloro-1H-benzimidazol-2-yl)oxetan-3-yl]phenyl}-2-(trifluoromethyl)pyridin-4-yl]methanol]
16 | 2.28 | 238 | OCc1cc(C(F)(F)F)ncc1-c1ccc(C2(c3nc4ncc(Cl)cc4[nH]3)CCC2)cc1 [Example 46, [5-{4-[1-(6-chloro-1H-imidazo[4,5-b]pyridin-2-yl)cyclobutyl]phenyl}-2-(trifluoromethyl)pyridin-4-yl]methanol]
17 | 1.7 | 72.9 | CC(C)(O)c1cc(C(F)(F)F)ncc1-c1ccc(C2(c3nc4cc(Cl)ccc4[nH]3)CCC2)cc1 [Example 49, 2-[5-{4-[1-(5-chloro-1H-benzimidazol-2-yl)cyclobutyl]phenyl}-2-(trifluoromethyl)pyridin-4-yl]propan-2-ol]
18 | 3.03 | 4040 | OCc1cc(C(F)(F)F)ncc1-c1ccc(C2(c3nc4ncc(Cl)cc4[nH]3)COC2)cc1 [Example 50, (5-(4-(3-(6-chloro-1H-imidazo[4,5-b]pyridin-2-yl)oxetan-3-yl)phenyl)-2-(trifluoromethyl)pyridin-4-yl)methanol]
19 | 1.53 | 74.7 | O=C(Nc1ccc(C2(c3nc4ncc(C(F)(F)F)cc4[nH]3)CCC2)cc1)c1cccc(Cl)c1 [Example 1, 3-Chloro-N-(4-(1-(6-(trifluoromethyl)-1H-imidazo[4,5-b]pyridin-2-yl)cyclobutyl)phenyl)benzamide]
20 | 3.97 | 75.1 | N#Cc1cccc(C(=O)Nc2ccc(C3(c4nc5ncc(C#N)cc5[nH]4)CCC3)cc2)c1 [Example 3, 3-Cyano-N-(4-(1-(6-cyano-1H-imidazo[4,5-b]pyridin-2-yl)cyclobutyl)phenyl)benzamide]
21 | 1.85 | 120 | O=C(Nc1ccc(C2(c3nc4ncc(Cl)cc4[nH]3)CC(F)(F)C2)cc1)c1cccc(Cl)c1 [Example 24, 3-Chloro-N-(4-(1-(6-chloro-1H-imidazo[4,5-b]pyridin-2-yl)-3,3-difluorocyclobutyl)phenyl)benzamide]
